Reference: patent US20050261290A1, “Novel compounds of proline and morpholine derivatives” (priority 2004, published 2005)
Like-named read-outs stand apart in the source and are kept apart here.

Target: human 11b-hsd-1 (Homo sapiens, UniProt P28845)
Test: Inhibition constant Ki of human 11b-hsd-1 (3H-cortisone to 3H-cortisol conversion, HPLC)
Type: biochemical
Details: for Ki: apparent Ki, read-out: Ki app
Method: In each well, varying amounts of compounds are incubated with a fixed amount of 11b-hsd-1 (4 nM) and NADPH (500 μM) for 30 to 40 min at room temperature in the assay buffer. The enzyme concentration was determined by titration using reversible tight-binding inhibitors. […] The area of 3H-cortisol is calculated and plotted versus time to determine a linear velocity. […] Where vi, and vo are the rates of cortisol formation in the presence and in the absence of inhibitor, respectively, I is the inhibitor concentration and E is the 11 b-hsd-1 concentration in the assay buffer. […] NADPH, Glucose-6-Phosphate (G6P), and Glucose-6-Phosphate dehydrogenase was purchased from Sigma.

Sequence of human 11b-hsd-1 (P28845 whole entry): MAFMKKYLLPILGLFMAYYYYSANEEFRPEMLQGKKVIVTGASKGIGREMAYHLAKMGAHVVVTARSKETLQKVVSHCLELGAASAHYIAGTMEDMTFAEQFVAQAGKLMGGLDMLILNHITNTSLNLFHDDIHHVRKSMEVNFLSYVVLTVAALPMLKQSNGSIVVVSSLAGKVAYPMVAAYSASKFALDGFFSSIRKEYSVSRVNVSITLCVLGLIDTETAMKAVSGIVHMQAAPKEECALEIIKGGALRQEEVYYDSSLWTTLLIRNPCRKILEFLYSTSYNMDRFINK

Structure (SMILES) | inhibition at 0.1 µM (0.1 μM compound) | Ki | inhibition at 0.1 µM (compound at 0.1 μM) | Ki (human 11b-hsd-1)
O=C(NC1C2CC3CC(C2)CC1C3)[C@H]1NCC[C@@H]1Cc1ccccc1 (stereo partly drawn) [Example 369] | 100% | 6.6 nM | – | –
O=C(NC12CC3CC(CC(C3)C1)C2)[C@H]1CCCN1Cc1ccccn1 [Example 250] | 100% | 5.9 nM | – | –
COc1ccccc1CNC(=O)[C@H]1CCCN1Cc1ccccc1 [Example 245] | 84.6% | 17 nM | – | –
CNCCN1CCC[C@@H]1C(=O)NC1C2CC3CC(C2)CC1C3 (stereo partly drawn) [Example 111] | – | – | 96% | –
COC(C)(C)CN1CCC[C@@H]1C(=O)NC1C2CC3CC(C2)CC1C3 (stereo partly drawn) [Example 120] | – | – | 100% | –
O=C(NC1CCCCC1)[C@H]1CCCN1CC(F)(F)F [Example 101] | – | – | 100% | 5 nM
O=C(NC12CC3CC(CC(C3)C1)C2)[C@H]1CCCC[C@H]1NCc1ccc(Cl)cc1 (racemic) [Example 201] | 100% | 5.9 nM | – | –
CC(C)CN1CCCCC1C(=O)NC12CC3CC(CC(C3)C1)C2 (stereo not drawn) [Example 206] | 100% | 5.2 nM | – | –
N#Cc1ccc(CN2CCC[C@@H]2C(=O)NCc2ccccc2)cc1 [Example 323] | 69.7% | 110 nM | – | –
O=C(NC1C2CC3CC(C2)CC1C3)[C@@H]1C[C@H](Oc2ccc(Cl)c(F)c2)CN1 (stereo partly drawn) [Example 365] | 100% | 1 nM | – | –
CC(=O)N1CCC(CN2CCC[C@@H]2C(=O)NC2C3CC4CC(C3)CC2C4)CC1 (stereo partly drawn) [Example 139] | – | – | 100% | –
CC(C)CN1CCC[C@@H]1C(=O)NC1Cc2ccccc2C1 [Example 289] | 100% | 1.2 nM | – | –
O=C(NC1CCCCC1)[C@@H]1C[C@H](Oc2c(F)cc(F)cc2F)CN1 [Example 372] | 97.4% | – | – | –
O=C(NCc1ccc(F)cc1)[C@H]1CCCN1CC1CC1 [Example 225] | 86.2% | 153 nM | – | –
N#Cc1ccc(CN2CCOC[C@@H]2C(=O)N[C@@H]2CCCc3ccccc32)cc1 [Example 315] | 96.1% | 6.63 nM | – | –
N#Cc1ccc(CN2CCC[C@@H]2C(=O)NC2CCCCC2)cc1 [Example 52] | – | – | 100% | 4.6 nM
O=C(NC12CC3CC(CC(C3)C1)C2)C1COCCN1CCC1CCOCC1 (stereo not drawn) [Example 185] | – | – | 91.3% | 14 nM
O=C(NC1C2CC3CC(C2)CC1C3)[C@@H]1C[C@H](Oc2ccc(F)c(F)c2F)CN1 (stereo partly drawn) [Example 355] | 100% | 1 nM | – | –
O=C(NC1CCc2ccccc21)[C@H]1CCCN1CC1CCCC1 (stereo partly drawn) [Example 39] | – | – | 100% | < 1 nM
CCCN1CCOC[C@@H]1C(=O)NC1CCCCC1 [Example 331] | 86.6% | 26 nM | – | –
O=C(NC1CCCCC1)[C@H]1CCCN1C1CCC1 [Example 103] | – | – | 83% | 14 nM
O=C(NCc1ccc(Cl)cc1)[C@H]1CCCN1CC1CCCCC1 [Example 13] | – | – | 85% | 1 nM
CC(C)CN1CCOC[C@@H]1C(=O)N[C@@H]1CCCc2ccccc21 [Example 316] | 91% | 10.9 nM | – | –
O=C(NCc1c(F)cccc1F)[C@H]1COCCN1Cc1ccccc1 [Example 327] | 68.9% | 110 nM | – | –

Structure (SMILES) | inhibition at 0.1 µM (0.1 μM compound) | Ki | inhibition at 0.1 µM (compound at 0.1 μM) | Ki (human 11b-hsd-1)
CC(C)CN1CCC[C@@H]1C(=O)N[C@H](C)c1ccc(Cl)cc1 [Example 298] | 100% | 1.77 nM | – | –
CC(C)(C)OC(=O)N1CCCC(C(=O)Nc2ccc3ncccc3n2)C1 (stereo not drawn) [Example 164] | – | – | 11% | –
COc1ccccc1CNC(=O)[C@H]1CCCN1Cc1cccc(Cl)c1 [Example 266] | 77.9% | 57 nM | – | –
CN(C(=O)[C@H]1COCCN1CC1CCOCC1)C1CCCCC1 [Example 49] | – | – | 64% | –
CN(CCN1CCC[C@@H]1C(=O)NC1C2CC3CC(C2)CC1C3)Cc1ccccc1 (stereo partly drawn) [Example 110, 1-[2-(Benzyl-methyl-amino)ethyl]-pyrrolidine-2-carboxylic acid adamantan-2-ylamide] | – | – | 100% | –
CC(C)CN1CCC[C@@H]1C(=O)NCc1ccc(F)cc1 [Example 222] | 100% | 6.9 nM | – | –
CS(=O)(=O)NCCN1CCC[C@@H]1C(=O)NC1C2CC3CC(C2)CC1C3 (stereo partly drawn) [Example 130, 1-(2-Methanesulfonylamino-ethyl)pyrrolidine-2-carboxylic acid adamantan-2-ylamide] | – | – | 56% | –
O=C(NC12CC3CC(CC(C3)C1)C2)[C@@H]1[C@H]2CC[C@H](C2)N1Cc1ccc(Cl)cc1 (racemic) [Example 204] | 100% | 1 nM | – | –
O=C(NC1C2CC3CC(C2)CC1C3)[C@H]1NCC[C@@H]1Cc1ccc(F)cc1 (stereo partly drawn) [Example 368] | 96.4% | 6.8 nM | – | –
CS(=O)(=O)N1CCC[C@@H]1CN1CCC[C@@H]1C(=O)NC1C2CC3CC(C2)CC1C3 (stereo partly drawn) [Example 134] | – | – | 96% | –
CC(C)CN1CCOC[C@@H]1C(=O)NCc1ccccc1 [Example 278] | 76% | 49.2 nM | – | –
O=C(N[C@@H]1CCc2ccccc21)[C@H]1COCCN1Cc1ccccc1 [Example 304] | 59.4% | 3.6 nM | – | –
CN(C(=O)C1CCCCN1Cc1ccc(Cl)cc1)C1CCCCC1 (stereo not drawn) [Example 193] | 100% | 14 nM | – | –
CC(C)CN1CCOC[C@@H]1C(=O)NCc1cccc(F)c1 [Example 33] | – | – | 65% | –
CCCN1CCC[C@@H]1C(=O)NC1CCC(C)CC1 (stereo partly drawn) [Example 106] | – | – | 100% | 2 nM
O=C(NC1C2CC3CC(C2)CC1C3)[C@@H]1C[C@H](Oc2cc(F)c(F)c(F)c2)CN1 (stereo partly drawn) [Example 362] | 100% | 1.1 nM | – | –
CC(C)CN1CCOC[C@@H]1C(=O)NCC1CCCCC1 [Example 336] | 100% | 1 nM | – | –
CC(C)CN1CCC[C@@H]1C(=O)NCc1ccccn1 [Example 219] | 86.6% | 168 nM | – | –
CC(C)CN1CCC[C@@H]1C(=O)NCc1ccccc1F [Example 220] | 96.7% | 5.1 nM | – | –
Cc1ccccc1CNC(=O)[C@H]1CCCN1CCc1ccccc1 [Example 270] | 84.7% | 35 nM | – | –
O=C(NC1C2CC3CC(C2)CC1C3)[C@H]1C[C@@H](O)CN1CC1CCOCC1 (stereo partly drawn) [Example 48] | – | – | 83% | –
CCN1C[C@H](O)C[C@@H]1C(=O)NC1C2CC3CC(C2)CC1C3 (stereo partly drawn) [Example 24] | – | – | 100% | 1.4 nM
O=C(NC12CC3CC(CC(C3)C1)C2)C1COCCN1CC1CCCC1 (stereo not drawn) [Example 183] | – | – | 100% | 2.1 nM
CC(C)CN1CCOC[C@@H]1C(=O)NCc1ccc(F)cc1 [Example 34] | – | – | 79% | 18 nM

Structure (SMILES) | inhibition at 0.1 µM (0.1 μM compound) | Ki | inhibition at 0.1 µM (compound at 0.1 μM) | Ki (human 11b-hsd-1)
CC1(C)CC(NC(=O)C2COCCN2Cc2ccccc2)CC(C)(C)C1 (stereo not drawn) [Example 186] | – | – | 100% | 1 nM
O=C(NC12CC3CC(CC(C3)C1)C2)[C@H]1[C@H]2CC[C@H](C2)N1Cc1ccc(Cl)cc1 (relative stereo) [Example 203] | 100% | 1 nM | – | –
Cc1ncccc1O[C@@H]1CN[C@H](C(=O)NC2C3CC4CC(C3)CC2C4)C1 (stereo partly drawn) [Example 359] | 80.7% | 44 nM | – | –
CC(C)CN1CCOC[C@@H]1C(=O)NCc1ccccc1F [Example 57] | – | – | 81% | 23.4 nM
O=C(NC1C2CC3CC(C2)CC1C3)[C@H]1C[C@@H](O)CN1Cc1ccccc1 (stereo partly drawn) [Example 26] | – | – | 100% | 1 nM
CN(C)CCN1CCC[C@@H]1C(=O)NC1C2CC3CC(C2)CC1C3 (stereo partly drawn) [Example 107] | – | – | 100% | 2 nM
O=C(NC1CCCCC1)[C@H]1CCCN1CC1CCOCC1 [Example 99] | – | – | 91% | 8 nM
CN1CCC[C@@H]1C(=O)NC12CC3CC(CC(C3)C1)C2 [Example 20] | – | – | 72% | 23.3 nM
CC(C)(C)OC(=O)N1CCC[C@@H]1CN1CCC[C@@H]1C(=O)NC1C2CC3CC(C2)CC1C3 (stereo partly drawn) [Example 113] | – | – | 100% | –
CCCN1CCC[C@@H]1C(=O)N[C@@H]1C[C@H]2CC[C@@H]1C2 [Example 89] | – | – | 92% | –
O=C(NCc1ccc(Cl)cc1)[C@H]1CCCN1Cc1ccc(Cl)cc1 [Example 325] | 35.7% | – | – | –
CN(C(=O)C1COCCN1Cc1ccccc1)C1CCCCC1 (stereo not drawn) [Example 177] | – | – | 92.2% | 18 nM
Cc1ccccc1CNC(=O)[C@H]1CCCN1Cc1ccccc1 [Example 246] | 87.7% | 16 nM | – | –
CN(C)CCN1C[C@H](O)C[C@@H]1C(=O)NC1C2CC3CC(C2)CC1C3 (stereo partly drawn) [Example 43] | – | – | 31.9% | –
CC(C)(O)CN1CCC[C@@H]1C(=O)NC1CCCCC1 [Example 87, 1-(2-Hydroxy-2-methyl-propyl)-pyrrolidine-2-carboxylic acid cyclohexylamide] | – | – | 54% | –
Cc1cc(O[C@@H]2CN[C@H](C(=O)NC3C4CC5CC(C4)CC3C5)C2)ccc1F (stereo partly drawn) [Example 351] | 100% | 1 nM | – | –
O=C(NC12CC3CC(CC(C3)C1)C2)C1COCCN1CC1CCOCC1 (stereo not drawn) [Example 184] | – | – | 100% | 3.2 nM
O=C(NC1C2CC3CC(C2)CC1C3)[C@H]1NCC[C@@H]1C1CCCC1 (stereo partly drawn) [Example 342] | 97.5% | 9.9 nM | – | –
O=C(NCc1ccc(F)cc1)[C@H]1CCCN1CC1CCCC1 [Example 228] | 89.3% | 54 nM | – | –
CC(C)CN1[C@H]2CC[C@H](C2)[C@@H]1C(=O)NC12CC3CC(CC(C3)C1)C2 (relative stereo) [Example 210] | 100% | 1 nM | – | –
O=C(NC1C2CC3CC(C2)CC1C3)[C@H]1CCCN1C[C@@H]1CCCN1 (stereo partly drawn) [Example 141] | – | – | 76% | –
CCOc1ccccc1O[C@@H]1CN[C@H](C(=O)NC2C3CC4CC(C3)CC2C4)C1 (stereo partly drawn) [Example 361] | 100% | 1.9 nM | – | –
